# Several values for one entry are separate records, joined by “and”; a condition that tells them apart may be missing. Equal values may be shown once.
# Tests used:
# SF/GF peptide = experiment: serum antibody ELISA to SF/GF peptide; assay type: in vivo, mice; design: scale not given here; conditions: serum pool four days before challenge
# Excerpt: (§1) Next using another antigen with B and T cell activity two inbred strains of mice, (A/J and Balb/c) were immunized twice at three week intervals with the L.E.A.P.S.™ constructs (J-GF/SF or der-SF/GF) or with the subunits (SF/GF, J and derG) used to make heteroconjugated peptides, and were challenged with 100 Plasmodium yoelii sporozoites 2 weeks after the second immunization and protection efficacy evaluated as before. Four days before challenge, serum was collected from individual animals, pooled and analyzed immediately for antibody to SF/GF peptide sera collected from immunized and protected mice 15 days post challenge were pooled and used for IFN-γ determination by ELISA procedures.
# [1] = system: Plasmodium yoelii sporozoites; experiment: malaria protection assay, sporozoite challenge of immunized mice; assay type: in vivo; conditions: for Protection: 25 μg 2 times at 3 week intervals in TiterMax, 100 sporozoites
# Protocol: In particular, mice were immunized twice at three week intervals with 25 μg of the subunits (W or G) used to make the L.E.A.P.S.™ construct (GW), and were challenged with 200 plasmodium yoelii sporozoites 2 weeks after the second immunization. Protective efficacy was evaluated by thin blood smears every other day starting 4 days after the challenge. Mice were considered protected if no blood stage parasites were detectable by 14 days after challenge.
# as §1
# Groups of 10 mice were pre-treated 2 times at 3 week intervals with 25 μg of derG in TiterMax™ adjuvant and challenged with 100 Plasmodium yoelii sporozoites. Protective efficacy was evaluated as described above.
# HSV-1 = experiment: scarification zosteriform spread model of HSV infection; assay type: in vivo; conditions: A/J mice
# Protocol: Groups of 4- to 6-wk old female A/J mice were subcutaneously inoculated once with 25 μg of the derG peptide emulsified in ISA51 adjuvant at a 1:1 ratio before challenge unless otherwise specified. Untreated mice and mice treated with adjuvant served as additional controls. The mice were challenged as specified in methods well known to those of ordinary skill in the art and as exemplified by Goel et al. (“The Ability of an HSV Strain to Initiate Zosteriform Spread Correlates with its Neuroinvasive Disease Potential”, Arch Virol 147:763-773 (2002)) and Goel et al., (“A Modification Of The Epidermal Scarification Model Of Herpes Simplex Virus Infection To Achieve A Reproducible And Uniform Progression Of Disease”, J Virol Meth 106; 153-8 (2002)).
# In particular, hair is removed by shaving and then Nair® is applied. Twenty-fours later the depilated back of a mouse is scratched or abraded to expose the susceptible epidermal layer and virus rubbed in. To provide more detail, 10 μl of a virus suspension containing 6×10^4 plaque forming units was pipetted onto a 0.5 cm square of skin on mouse dorsal surface, which was previously abraded using sand paper glued on a pencil eraser. In untreated animals, the primary lesion developed at the inoculation site within 3 days and spread to the associated root, followed by anterograde transport and formation of secondary lesions at sites along the dermatome of the nerves within 5 days. In severe cases, animals died within 8 days post viral challenge. Disease progression and survival were monitored for at least 10 days. […] The progression and the severity of the lesions was scored from 0 to 7 (death). This model allows for discrimination of the disease progression (local site, neuronal spread, extent of lesion at the dermatome, death) at which the immune system blocks viral progression. In some experiments modifications in the timing, route of administration and mouse strain were evaluated for efficacy of CEL-1000.
# B16 melanoma = experiment: allogeneic murine B16 melanoma protection model; assay type: in vivo, mice; conditions: in combination with allogeneic K1735 cells; B16 challenge; two experiments
# Protocol: In particular, C57/b16 (H2^b) mice are vaccinated with the allogeneic melanoma K1735 (H2^k) at least twice on weekly intervals and then challenged with syngeneic B16 (H2^b) tumors. […] This is clear evidence of cross-priming and the existence of shared antigens.
# Peptide constructs were prepared using as T cell binding ligand, either derG (SEQ ID NO. 7), Peptide G (SEQ ID NO. 5). The peptides are synthesized using the FMOC procedure and a double coupling protocol for the first 8 residues. Usually the peptide is prepared with the carboxyl terminus as an amide form. All of the peptides are purified using preparative HPLC, and analyzed by an analytical HPLC, amino acid analysis and mass spectrophotometer. The peptides are greater than 95%, usually greater than 98%, pure by HPLC criteria. The dry peptides are stored in vials with desiccant at −8° C. • 1) Eight groups of seven mice were injected with 200 μl of the vaccine as shown in FIG. 1. • 2) This was repeated after 7 days. • 3) A further 7 days later, mice were challenged with 200 μl saline containing 5×10^4 live B16 on the contralateral side to vaccination. • 4) Mice were sacrificed when tumor size exceeded 15 mm in either axis.
# In order more precisely model the use of clinical allogeneic vaccines, a frozen vaccine was used in the mouse model wherein K-1735 cells were thawed just prior to use. […]
# IFN-γ = experiment: serum IFN-γ determination by ELISA; assay type: in vivo; conditions: A/J mice, serum pool 15 days post challenge
# Excerpt: as §1
# [2] = A/J mice, dose 5 μg, 100 sporozoites (Table 5)
# [3] = A/J mice, dose 25 μg, 100 sporozoites (Table 5)
# [4] = Balb/c mice, dose 25 μg, 100 sporozoites (Table 5)
# [5] = A/J mice, dose 1.25 μg (Table 6)
# [6] = A/J mice, dose 2.5 μg (Table 6)
Sequence,"Antibody EL1SA A490* (SF/GF peptide; A/J mice, dose 5 μg)","Antibody EL1SA A490* (SF/GF peptide; A/J mice, dose 25 μg)","Antibody EL1SA A490* (SF/GF peptide; Balb/c mice, dose 25 μg)","Protection (%) ([1]; A/J mice, dose 5 μg (Table 6))","Protection (%) [1, 2]","Protection (%) [1, 3]","Protection (%) [1, 4]","Protection (%) ([1]; A/J mice, dose 10 μg (Table 6))",also measured
DGQEEKAGVVSTGLIGGGSFPMNEESPLGFSPEEMEAVASKFR [derG-GF/SF],"1,933","10,694","17,019",10%,80%,100%,0%,–,–
SFPMNEESPLGFSPEEMEAVASKFR [GF/SF],"8,443","19,970",–,10%,30%,100%,–,50%,–
DLLKNGERIEKVEGGG SFPMNEESPLGFSPEEMEAVASKFR [J-GF/SF],"1,103","6,121","11,454",–,10%,100%,0%,56%,–
"DGQEEKAGVVSTGLIGGG [derG, modified fragment from MHC II β-chain (a.a. 135-149)]",2,2,4,100%,100%,100%,0%,–,"protection from lethal HSV-1 challenge (HSV-1): protects A/J mice from lethal HSV-1 challenge; Protection (HSV-1; intramuscularly 2 weeks prior to challenge, without adjuvant, in aqueous solution): 100%; onset of symptoms, morbidity and mortality, zosteriform spread (HSV-1; single dose of 25 μg, timing of administration (FIG. 3)): delay in onset of symptoms; Protection ([1]; A/J mice): 80; Protection (%) [1, 5]: 60%; Protection Protected/Tested [1, 5]: 6/10; Protection (%) [1, 6]: 80%; Protection Protected/Tested [1, 6]: 9/10; Protection Protected/Tested ([1]; A/J mice, dose 5 μg (Table 6)): 10/10; Protection Protected/Tested [1, 2]: 10/10; Protection Protected/Tested [1, 3]: 10/10; Protection ([1]; BALB/c mice): 0; Protection Protected/Tested [1, 4]: 0/10; Protection ([1]; C3H mice): 40; Protection ([1]; CAF1 hybrid mice): 40; Protection (B16 melanoma): 30% and 40%; IFN-γ serum (IFN-γ; dose 5 μg): 40,000 pg/mL; IFN-γ serum (IFN-γ; dose 25 μg): 18,000 pg/mL"
"DLLKNGERIEKVEGGG [J, short fragment from β2-microglobulin (a.a. 38-50)]",1,2,2,–,10%,10%,0%,10%,–

# — US20070003542A1, “Methods for treating diseases or conditions with peptide constructs” (priority 2002, published 2007)
